Like-named read-outs stand apart in the source and are kept apart here.
Legend:
[1] = tested on: SMN protein in spinal muscular atrophy (SMA) patient fibroblasts (GM03813, Coriell); assay: SMN protein assay, Mesoscale Discovery (MSD); type: cell-based, human; conditions: read-out: SMN2 protein EC50
Method: Example A12: SMN Protein Assay
Compounds are tested on spinal muscular atrophy (SMA) patient fibroblasts (GM03813, Coriell) at doses ranging from 2.5 μM to 0.6 nM. 7000 cells/well are seeded in 96-well plates. Compounds are incubated for 48 hours and the cells were lysed with 100 μL of lysis buffer. 20 μL of lysate is used for SMN protein measurement by Mesoscale Discovery (MSD) assay developed by PharmOptima (Michigan). A standard curve prepared with SMN protein ranging from 1 μg/ml to 19.5 pg/ml is used in each MSD plate to calculate the absolute SMN protein amount in each sample.

MDR1 = assay: Blood-brain-barrier (BBB) penetration potential via MDCK-MDR1 permeability assay; conditions: dog, MDCK-MDR1, pH 7.4, MDCK-MDR1: Efflux, efflux ratio
[2] = tested on: MDR1-MDCK cell monolayers; assay: as above
MDR1 (P-gp) = assay: as above; conditions: dog; for Papp A→B at 120 min, 5 μM: MDCK-MDR1, pH 7.4, MDCK-MDR1: Papp A-B; for Papp B→A at 120 min, 5 μM: MDCK-MDR1, pH 7.4, MDCK-MDR1: Papp B-A; for efflux ratio at 120 min, 5 μM: MDCK-MDR1, pH 7.4, MDCK-MDR1: Efflux
[3] = tested on: mHTT protein in GM04724 (CAG 70/20) Huntington's disease patient lymphoblast cells; assay: mHTT protein assay, 2B7-MW1 assay via Mesoscale Discovery (MSD); type: cell-based, human
Method: Example A10: mHTT Protein Assay
Compounds are tested on GM04724 (CAG 70/20) Huntington's disease patient lymphoblast cells at doses ranging from 10 μM to 0.6 nM. 4,500 cells/well are seeded in 384 well plates. One plate replica is carried out for parallel viability testing by CellTiter Glo (CTG). Compounds are incubated for 48 hours. mHTT protein levels are assessed by the 2B7-MW1 assay via Mesoscale Discovery (MSD) as previously reported (Macdonald et al., 2014). The antibody pair is comprised of previously characterized monoclonals (2B7 and MW1) interrogating two regions for HTT conformation and biological properties: the N, 17 domain and the polyQ domain (Baldo et al., 2012; Ko et., 2001). 2B7-MW1 is […] specific levels of HTT at the time of treatment. 2B7-MW1 is dependent on polyQ expansion (e.g., the higher the expansion the higher the signal) and on mHTT size (e.g., a similar polyQ will give higher signal with smaller HTT size). The viability readout is carried out by CTG according to the manufacturer's instructions.

[4] = tested on: SMN FL and SMN Δ7 in spinal muscular atrophy (SMA) patient fibroblasts (GM03813, Coriell); assay: Quantitative splicing assay (SMN), qPCR; type: cell-based, human; conditions: read-out: SMN2 Splicing FL EC50
Method: Spinal muscular atrophy (SMA) patient fibroblasts (GM03813, Coriell) are plated in 96-well plates at 50,000 cells/well. […] Treated cells are lysed and cDNA synthesized using the Fast Advanced Cells-to-Ct kit (Thermofisher A35378) according to the manufacturer's instructions. 2 μL of each cDNA are used in qPCR reactions. […] Reactions are run in a Quant Studio 6 qPCR instrument with default settings.

[5] = SMA patient fibroblasts GM03813, 48 hours, MSD
[6] = GM04724 Huntington's disease patient lymphoblasts
[7] = SMA patient fibroblasts GM03813, 24 h, qPCR
[8] = Homo sapiens, Fibroblast, 24 h, SMA patient fibroblasts GM03813, 24 h, qPCR
[9] = SMA patient fibroblasts (GM03813), 48 hours
[10] = GM04724 (CAG 70/20) Huntington's disease patient lymphoblasts
[11] = Homo sapiens, Fibroblast, 24 h, SMA patient fibroblasts (GM03813), 24 h

Row | SMILES | EC50 [1, 5] | efflux ratio at 120 min, 5 μM (MDR1) | MDCK-MDR1: % Recov A-B ([2]; A-B direction) | MDCK-MDR1: % Recov B-A ([2]; B-A direction) | Papp A→B at 120 min, 5 μM (MDR1 (P-gp); A-B direction) | Papp B→A at 120 min, 5 μM (MDR1 (P-gp); B-A direction) | EC50 [3, 6] | EC50 [4, 8] | also measured
1 | COc1cc(-c2ccc(-c3ccc(N(C)[C@H]4CC5N[C@@H](C4)CC5(F)F)nn3)c(O)c2)cnn1 (single isomer, unassigned) [Compound 2A] | 16 to 50 nM | 3 | 54% | 81% | 11.3 ×10⁻⁶ cm/s | 39 ×10⁻⁶ cm/s | 16 to 50 nM | – | EC50 [4, 7]: 16 to 50 nM
2 | CN(c1ccc(-c2cc3cnccc3cc2O)nn1)[C@@H]1C[C@H]2CC[C@H](N2)[C@@H]1F (single isomer, unassigned) [Compound 7B] | 0.01 to 15 nM | – | 69% | 89% | – | – | 51 to 100 nM | – | MDCK-MDR1: Papp A-B ([2]; A-B direction): 4.27 10^−6, cm/s; MDCK-MDR1: Papp B-A ([2]; B-A direction): 36.1 10^−6, cm/s; MDCK-MDR1: Efflux ([2]; efflux ratio): 8; EC50 [4, 7]: 51 to 100 nM
3 | Cc1ccc(-c2ccc(-c3ccc(N(C)[C@@H]4C[C@H]5CC[C@H](N5)[C@@H]4F)nn3)c(O)c2)nn1 (single isomer, unassigned) [Compound 25A] | 0.01 to 15 nM | 31 | 99% | 99% | 1.79 ×10⁻⁶ cm/s | 55 ×10⁻⁶ cm/s | 101 to 500 nM | 101 to 500 nM | –
4 | CC#Cc1ccc(-c2ccc(N(C)[C@@H]3C[C@H]4CC[C@H](N4)[C@@H]3F)nn2)c(O)c1 (single isomer, unassigned) [Compound 30A] | 0.01 to 15 nM | 2 | 35% | 55% | 11.1 ×10⁻⁶ cm/s | 19.7 ×10⁻⁶ cm/s | 16 to 50 nM | 51 to 100 nM | –
5 | CNC(=O)c1ccc(-c2ccc(N(C)[C@H]3C[C@@H]4CC[C@@H](N4)[C@H]3F)nn2)c(O)c1 (single isomer, unassigned) [Compound 77B] | 101 to 500 nM | 144 | 102% | 106% | 0.28 ×10⁻⁶ cm/s | 40.3 ×10⁻⁶ cm/s | 101 to 500 nM | 51 to 100 nM | –
6 | CN(c1ccc(-c2cc3oc(=O)n(C)c3cc2O)nn1)[C@H]1C[C@@H]2CC[C@@H](N2)[C@H]1F (single isomer, unassigned) [Compound 79B] | 16 to 50 nM | 16 | 90% | 99% | 2.69 ×10⁻⁶ cm/s | 42.9 ×10⁻⁶ cm/s | 51 to 100 nM | 101 to 500 nM | –
7 | CN(C)C(=O)c1cc2cc(O)c(-c3ccc(N(C)[C@@H]4C[C@H]5CC[C@H](N5)[C@@H]4F)nn3)cc2o1 [Compound 9A, 6-(6-(((1S,2S,3R,5R)-2-fluoro-8-azabicyclo[3.2.1]octan-3-yl)(methyl)amino)pyridazin-3-yl)-5-hydroxy-N,N-dimethylbenzofuran-2-carboxamide] | 0.01 to 15 nM | 80 | 108% | 111% | 0.76 ×10⁻⁶ cm/s | 61.1 ×10⁻⁶ cm/s | 51 to 100 nM | 16 to 50 nM | –
8 | CN(c1ccc(-c2cc(F)c(-c3ccn(C)c(=O)c3)cc2O)nn1)[C@@H]1C[C@H]2CC(F)(F)[C@@H](C1)N2 [Compound 22A, 4-(4-(6-(((1S,3R,5R)-6,6-difluoro-8-azabicyclo[3.2.1]octan-3-yl)(methyl)amino)pyridazin-3-yl)-2-fluoro-5-hydroxyphenyl)-1-methylpyridin-2(1H)-one] | 0.01 to 15 nM | 45 | 86% | 94% | 1.82 ×10⁻⁶ cm/s | 80.9 ×10⁻⁶ cm/s | – | 0.01 to 15 nM | –
9 | CN(c1ccc(-c2cc3ncccc3cc2O)nn1)[C@@H]1C[C@H]2CC(F)(F)[C@@H](C1)N2 [Compound 46A, 7-(6-(((1S,3R,5R)-6,6-difluoro-8-azabicyclo[3.2.1]octan-3-yl)(methyl)amino)pyridazin-3-yl)quinolin-6-ol] | 16 to 50 nM | – | 68% | 89% | 31.7 ×10⁻⁶ cm/s | 29.2 ×10⁻⁶ cm/s | 16 to 50 nM | 501 to 10000 nM | efflux ratio at 120 min, 5 μM (MDR1 (P-gp); efflux ratio): 1
10 | CN(c1ccc(-c2cc3ncccc3cc2O)nn1)[C@H]1C[C@@H]2CC(F)(F)[C@H](C1)N2 [Compound 46B, 7-(6-(((1R,3S,5S)-6,6-difluoro-8-azabicyclo[3.2.1]octan-3-yl)(methyl)amino)pyridazin-3-yl)quinolin-6-ol] | 16 to 50 nM | – | 68% | 86% | 32 ×10⁻⁶ cm/s | 31.6 ×10⁻⁶ cm/s | 101 to 500 nM | 101 to 500 nM | efflux ratio at 120 min, 5 μM (MDR1 (P-gp); efflux ratio): 1
11 | CN(c1ccc(-c2cc3c(F)cn(C)c(=O)c3cc2O)nn1)[C@@H]1C[C@H]2CC[C@H](N2)[C@@H]1F [Compound 54A, 4-fluoro-6-(6-(((1S,2S,3R,5R)-2-fluoro-8-azabicyclo[3.2.1]octan-3-yl)(methyl)amino)pyridazin-3-yl)-7-hydroxy-2-methylisoquinolin-1(2H)-one] | 0.01 to 15 nM | 23 | 108% | 115% | 3.54 ×10⁻⁶ cm/s | 82.6 ×10⁻⁶ cm/s | – | 16 to 50 nM | –
12 | CN(c1ccc(-c2cc3c(F)cn(C)c(=O)c3cc2O)nn1)[C@H]1C[C@@H]2CC[C@@H](N2)[C@H]1F [Compound 54B, 4-fluoro-6-(6-(((1R,2R,3S,5S)-2-fluoro-8-azabicyclo[3.2.1]octan-3-yl)(methyl)amino)pyridazin-3-yl)-7-hydroxy-2-methylisoquinolin-1(2H)-one] | 0.01 to 15 nM | 27 | 99% | 107% | 2.28 ×10⁻⁶ cm/s | 61.5 ×10⁻⁶ cm/s | – | 0.01 to 15 nM | –
13 | CN(c1ccc(-c2cc3ccncc3cc2O)nn1)[C@H]1C[C@@H]2CC(F)(F)[C@H](C1)N2 [Compound 125B, 6-(6-(((1R,3S,5S)-6,6-difluoro-8-azabicyclo[3.2.1]octan-3-yl)(methyl)amino)pyridazin-3-yl)isoquinolin-7-ol] | – | – | – | – | – | – | – | – | EC50 [1, 9]: 16 to 50 nM; MDCK-MDR1: % Recov A-B ([2]; A-B): 67%; MDCK-MDR1: % Recov B-A ([2]; B-A): 81%; efflux ratio at 120 min, 5 μM (MDR1 (P-gp)): 3; Papp A→B at 120 min, 5 μM (MDR1 (P-gp); A-B): 15.6 ×10⁻⁶ cm/s; Papp B→A at 120 min, 5 μM (MDR1 (P-gp); B-A): 53.2 ×10⁻⁶ cm/s; EC50 [3, 10]: 51 to 100 nM; EC50 [4, 11]: 16 to 50 nM
14 | CN(c1ccc(-c2cc3cnccc3cc2O)nn1)[C@@H]1C[C@H]2CC(F)(F)[C@@H](C1)N2 [Compound 126A, 7-(6-(((1S,3R,5R)-6,6-difluoro-8-azabicyclo[3.2.1]octan-3-yl)(methyl)amino)pyridazin-3-yl)isoquinolin-6-ol] | – | – | – | – | – | – | – | – | EC50 [1, 9]: 0.01 to 15 nM; MDCK-MDR1: % Recov A-B ([2]; A-B): 80%; MDCK-MDR1: % Recov B-A ([2]; B-A): 92%; efflux ratio at 120 min, 5 μM (MDR1 (P-gp)): 3; Papp A→B at 120 min, 5 μM (MDR1 (P-gp); A-B): 13.7 ×10⁻⁶ cm/s; Papp B→A at 120 min, 5 μM (MDR1 (P-gp); B-A): 35.3 ×10⁻⁶ cm/s; EC50 [3, 10]: 51 to 100 nM; EC50 [4, 11]: 16 to 50 nM

Source: patent US12509460B2 (Skyhawk Therapeutics, Inc., priority 2019, dated 2025)
